Source: paper PMC7804268, “Engineering and elucidation of the lipoinitiation process in nonribosomal peptide biosynthesis” (Nature Communications, 2021)

Target: T1, RzmA-Cs (Mycetohabitans rhizoxinica, UniProt E5ATN9, R148A)
T1 construct: gene RBRH_01504; excised starter condensation (Cs) domain, residues 1-431, pET28a, E. coli BL21(DE3), N-terminal His6 tag removed by thrombin, size-exclusion purified
T1 sequence (E5ATN9 1-431 R148A): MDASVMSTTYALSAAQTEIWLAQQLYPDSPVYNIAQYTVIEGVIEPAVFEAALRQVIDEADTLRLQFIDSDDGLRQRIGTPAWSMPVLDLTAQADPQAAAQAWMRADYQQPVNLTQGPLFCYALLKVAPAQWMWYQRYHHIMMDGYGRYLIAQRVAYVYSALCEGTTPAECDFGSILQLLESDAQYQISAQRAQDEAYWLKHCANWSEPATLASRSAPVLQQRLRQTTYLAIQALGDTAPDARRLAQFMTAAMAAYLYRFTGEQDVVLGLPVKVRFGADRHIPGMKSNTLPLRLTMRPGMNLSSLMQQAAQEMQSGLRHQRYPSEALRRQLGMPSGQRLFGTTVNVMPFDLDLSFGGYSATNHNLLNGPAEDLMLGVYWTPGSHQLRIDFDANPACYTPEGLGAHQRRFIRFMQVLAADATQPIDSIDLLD
Experiment: isothermal titration calorimetry
Format: binding

SMILES: CCCCCCCC(=O)SCCNC(=O)CCNC(=O)[C@H](O)C(C)(C)COP(=O)(O)OP(=O)(O)OC[C@H]1O[C@@H](n2cnc3c(N)ncnc32)[C@H](O)[C@@H]1OP(=O)(O)O [3d, C8-CoA]
- Kd: ~300 nM
